The text below walks through data of US20060263881A1, “Methods of expanding and selecting disease associated T-Cells” (priority 1998, published 2006).

Where “and” joins values, the source holds several entries; their conditions need not be identical. Equal values may be shown once.

Series [1] concerns long term cultured gut T-cell cultures C1x, C2x, C4.2. The format is cell-based, human.
Series [2] has as its system gut T-cell cultures from patients with Crohn's disease. It is filed as cell-based, human.
For series [3] the test system is unchanged.
Series [4] concerns transmembrane TNFα on SP2/O myeloma cells. Conditions: murine SP2/O myeloma cells with cleavage-resistant transmembrane TNFα; cited from earlier work.
The subject of series [5] is in vivo activated gut T-lymphocytes (primary cultures C11.3, C12.1, C8.1, C8.3) from patients with Crohn's disease. The format is cell-based, human. Conditions: 24 h.
The test system of series [6] is human T-cell lines. As to the kind of experiment: Cytolysis after addition of Infliximab and incubation with fresh human serum (complement). The format is cell-based. Conditions: versus murine SP2/O myeloma cell results.

As to “Infliximab: chimeric TNFα antibody with high avidity for transmembrane TNFα (obtained from Centocor)”, the “SEA induced cytokine production after addition of Infliximab (in words)” value in series [1] is given as “reduced”. The “Proliferation rate (in words)” value in series [2] was “did not change”. In series [3], the “Amount of propidium iodide and Annexin-FITC positive cells compared with SEA alone (in words)” value was “did not increase”; the “Induction of apoptosis (in words)” value is given as “did not induce any apoptosis”. Also, in series [4], the “Infliximab molecules bound per cell (Scatchard analyses)” value is recorded as “about 35000 molecules per cell”. For the same substance, in series [5], the “Reduction of IFNγ production by Infliximab” value is 68% and 43% and 49% and 56%; the “Reduction of TNFα production by Infliximab” value came to 97%. Further, the “Complement activation / cytolysis by binding of Infliximab (in words)” value in series [6] is given as “could not confirm”.
